Experiments:
Format in all cases: cell-based
[1] = biological target: T1, LINE1 reverse transcriptase (Homo sapiens, UniProt O00370); assay: Stable artificial-intron Cis LINE1 reporter assay (HeLa Tet-On 3G); settings: HeLa L1 reporter cells, doxycycline induced, 72 h; read-out: IC50 for inhibition of FLuc luminescence
T1 construct: expressed in transfected cells
Text: A stable HeLa Tet-On 3G (Takara, cat no 631183) cell line expressing a bi-directional inducible LINE1 construct was generated as described in Xie, Y. et al. “Cell division promotes efficient retrotransposition in a stable L1 reporter cell line,” Mobile DNA (2013) 4:10. Single cell clones were screened for high Luciferase expression and the highest expression Firefly expressing clone was chosen for compound testing.
Test compound was serially diluted in DMSO and spotted in 96-well plates. Subsequently the HeLa L1 artificial-intron reporter cells were plated into the compound-containing wells (8,000 cells/well), and the cells were induced for reporter expression with doxycycline (Sigma cat no D9891) at a final concentration of 500 ng/mL. Luminescence was measured 72 h after plating using the Dual-Glo Luciferase Assay System (Promega cat no E2940) following the manufacturer's instructions. The Firefly Luciferase activity was used to report LINE1 activity.

[2] = system: SW756 cells; assay: Cancer cell viability assay with 3D cell colonies (CellTiter-Glo), SW756; settings: Homo sapiens, SW756, 168 h, 7 days
Method: Ovarian cancer cell line SK-OV-3 cells were cultured in McCoy's 5a media containing 10% FBS. Ovarian cancer cell line OVCAR-8 cells were cultured in RPMI media containing 10% FBS. Additional cancer cell lines were cultured in the following media: • Ovarian cancer SW756 cells—L-15 (100% air)+10% FBS • Esophageal cancer TE-1 cells—RPMI-1640+10% FBS • Esophageal cancer KYSE-410 cells—RPMI-1640+5˜10% FBS • Esophageal cancer KYSE-70 cells—RPMI-1640+10% h.i.FBS. • Pharyngeal cancer FaDu cells—MEM+0.01 mM NEAA+10% FBS
Cell colony formation was tested using a 3D methylcellulose-based CellTiter-Glo (CTG) viability assay (Cat. No: G7573, Promega). Briefly, cells were inoculated into 96-well plates (at 1,500 cells per well) into a solution of 0.65% methylcellulose in growth media and incubated overnight at 37° C. in 5% CO2. The next day, serially diluted test compound (islatravir) or positive control (cisplatin, Cat. No. 6J015A89, Qilu Pharma) were added at the indicated concentrations, and the cells were incubated for 7 days. On day seven, 100 μL of CTG reagent was added, and the plates were incubated at room temperature for 20 min. Luminescence was read on an Envision Multi Label Reader according to manufacturer's instructions. IC50 values were determined using the following calculation: […]

[3] = system: THP1-Dual™ KO-TREX1 cells; assay: Cellular assay for altering IFN production in THP1 TREX1 KO cells; settings: in the presence of 1 μM 5-aza-2′-deoxycytidine, five days
Method: (§1) THP1-Dual™ KO-TREX1 cells were purchased from Invivogen (cat #thpd-kotrex). The THP1-Dual™ KO-TREX1 cells were cultured in RPMI 1640, 10% heat-inactivated fetal bovine serum, 25 mM HEPES, 10 μg/mL Blasticidin, and 100 μg/mL Zeocin. THP1-Dual™ KO-TREX1 cells were treated with a dose titration of test compound in the presence of 1 μM 5-aza-2′-deoxycytidine (Sigma, cat #189825). Type 1 Interferon and cell viability were assessed after five days of treatment.
(§2) Stock solution of test compound was prepared in DMSO followed by a three-fold dilution in DMSO. Additional 50× dilution was prepared in cell culture media for each dilution. 10 μL of diluted test compound was then added to a 384-well plate.
(§3) THP1-Dual™ KO-TREX1 cells were treated with 1 μM 5-aza-2′-deoxycytidine. THP1-Dual™ KO-TREX1 cells (50 μL) were added to each well of the 384-well plate containing test compound titration at 10,000 cells/well. Cells were incubated at 37° C., 5% CO2 in a humidified incubator for five days. On day five, 20 μL of cell supernatant was transferred to a 384-well, white-walled plate, followed by addition to each well of 50 μL of QUANTI-LUC solution containing stabilizer. Luminescence was detected on a plate reader according to manufacturer's instructions. […]

[4] = system: THP1-Dual™ KO-TREX1 cells; assay: CellTiter-Glo cell viability in THP1 TREX1 KO cells; settings: Homo sapiens, 120 h, in the presence of 1 μM 5-aza-2′-deoxycytidine, five days, read-out: CellTiter-Glo inhibition IC50
Method: as §1, §2
as §3, with “On day five, 20 μL of cell supernatant was transferred to a 384-well, white-walled plate, followed by addition to each well of 50 μL of QUANTI-LUC solution containing stabilizer.” left out
The remaining cells were assessed for cell viability by adding 30 μl of CellTiter-Glo (Promega, G9683) solution to each well, and placed on a shaker for 10 minutes at room temperature. Luminescence was detected on a plate reader, according to manufacturer's instructions. […]

T1 sequence (O00370 whole entry, looked up): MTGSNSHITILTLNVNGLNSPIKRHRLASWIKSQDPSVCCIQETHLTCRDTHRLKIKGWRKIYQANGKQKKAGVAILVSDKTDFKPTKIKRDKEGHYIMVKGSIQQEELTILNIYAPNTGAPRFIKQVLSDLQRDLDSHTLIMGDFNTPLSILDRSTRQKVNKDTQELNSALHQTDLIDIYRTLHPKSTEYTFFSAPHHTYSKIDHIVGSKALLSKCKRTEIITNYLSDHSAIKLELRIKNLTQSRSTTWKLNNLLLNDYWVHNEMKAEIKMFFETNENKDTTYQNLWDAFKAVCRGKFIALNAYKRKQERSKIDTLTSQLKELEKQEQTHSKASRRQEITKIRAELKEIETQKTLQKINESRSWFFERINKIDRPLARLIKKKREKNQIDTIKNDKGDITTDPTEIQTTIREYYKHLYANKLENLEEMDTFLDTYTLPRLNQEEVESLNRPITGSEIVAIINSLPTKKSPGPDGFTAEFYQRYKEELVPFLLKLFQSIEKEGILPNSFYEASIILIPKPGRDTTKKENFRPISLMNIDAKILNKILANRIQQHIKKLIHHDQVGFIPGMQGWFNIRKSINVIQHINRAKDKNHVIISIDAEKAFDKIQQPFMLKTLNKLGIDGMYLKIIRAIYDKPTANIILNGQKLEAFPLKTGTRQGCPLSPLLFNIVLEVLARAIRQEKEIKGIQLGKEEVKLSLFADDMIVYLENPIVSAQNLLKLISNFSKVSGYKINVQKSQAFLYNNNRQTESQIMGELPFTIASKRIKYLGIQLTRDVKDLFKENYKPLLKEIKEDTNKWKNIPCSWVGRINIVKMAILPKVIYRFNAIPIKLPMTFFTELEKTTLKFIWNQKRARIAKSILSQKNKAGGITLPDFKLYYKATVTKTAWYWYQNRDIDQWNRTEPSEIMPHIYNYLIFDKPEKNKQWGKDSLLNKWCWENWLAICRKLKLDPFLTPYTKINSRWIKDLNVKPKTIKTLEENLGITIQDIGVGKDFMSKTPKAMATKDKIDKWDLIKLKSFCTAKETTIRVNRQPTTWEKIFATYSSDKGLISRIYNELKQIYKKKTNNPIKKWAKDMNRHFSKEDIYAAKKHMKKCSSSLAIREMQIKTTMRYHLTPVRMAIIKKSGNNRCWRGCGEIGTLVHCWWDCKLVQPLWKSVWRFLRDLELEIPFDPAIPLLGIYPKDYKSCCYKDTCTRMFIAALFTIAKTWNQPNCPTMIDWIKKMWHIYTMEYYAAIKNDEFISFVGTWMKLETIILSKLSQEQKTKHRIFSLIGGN

C#C[C@]1(CO)O[C@@H](n2cnc3c(N)nc(F)nc32)C[C@@H]1O [Islatravir, (2R,3S,5R)-5-(6-amino-2-fluoro-9H-purin-9-yl)-2-ethynyl-2-(hydroxymethyl)tetrahydrofuran-3-ol]
IC50 [1]: 0.00069 µM | IC50 [2]: > 30 µM | changes in IFN levels (% induction) [3]: induction of IFN | IC50 [4]: > 20 µM

From US20250186475A1, “METHODS OF TREATING MEDICAL CONDITIONS USING ISLATRAVIR OR A RELATED COMPOUND” (ROME Therapeutics, Inc., priority 2022, published 2025)
